In PubChem BioAssay (NCI):
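Growth conditions: 96-well plates. Treatment: test compound, 48 hours, 5 concentrations. Analysis: linear interpolation between bracketing concentrations; unreached endpoints set to highest concentration. TGI denotes the concentration required for complete inhibition of growth.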

What was measured:
Assay in all cases: DTP human tumour cell line panel, 48 h
[1] = system: T-47D breast
[2] = system: DU-145 prostate
[3] = system: HOP-92 NSCLC
[4] = system: U251 CNS
[5] = system: MDA-MB-231 breast
[6] = system: 786-0 renal
[7] = system: SW-620 colon
[8] = system: EKVX NSCLC
[9] = system: A549 NSCLC
[10] = system: BT-549 breast

Row | SMILES | TGI [1] | TGI [2] | TGI [3] | TGI [4] | TGI [5] | TGI [6] | TGI [7] | TGI [8] | TGI [9] | TGI [10]
1 | O=C(N=Nc1cc(Cl)ccc1Cl)NNc1cc(Cl)ccc1Cl | > 100 µM | > 100 µM | 32.9 µM | 31.3 µM | 40.1 µM | – | – | – | – | –
2 | C=C[C@@H]1C(CO)=CCC2[C@H]1CCC1C(C)(C)C(=O)CC[C@]21C (some centres undefined) | > 100 µM | > 100 µM | > 100 µM | > 100 µM | – | > 100 µM | > 100 µM | > 100 µM | > 100 µM | –
3 | CS(=O)(=O)OCCn1c(=O)n(CCOS(C)(=O)=O)c(=O)n(CCOS(C)(=O)=O)c1=O | > 100 µM | > 100 µM | – | > 100 µM | > 100 µM | > 100 µM | > 100 µM | > 100 µM | > 100 µM | > 100 µM
4 | O=C(NC(Cc1ccc(I)cc1)C(=O)O)c1ccc(I)cc1 (centres undefined) | – | – | > 100 µM | > 100 µM | – | – | > 37.3 µM | > 83.6 µM | > 100 µM | –
5 | CC(C(=O)n1nnc2ccccc21)N(c1ccccc1)c1ccccc1 (centres undefined) | – | – | – | > 100 µM | – | > 100 µM | > 100 µM | > 100 µM | > 100 µM | –
6 | COc1ccc2nc3cc(Cl)ccc3c(NCCCNCCCNc3c4ccc(Cl)cc4nc4ccc(OC)cc34)c2c1 | 1.23 µM | 0.156 µM | 0.347 µM | 0.13 µM | 0.0555 µM | – | – | 0.89 µM | 0.165 µM | 1.67 µM
7 | Cc1nn(C(=O)Cc2ccccc2)c2c1C(c1ccc(O)cc1)SC(N)=N2 (centres undefined) | > 100 µM | > 100 µM | – | – | > 100 µM | > 100 µM | > 100 µM | > 100 µM | > 100 µM | > 100 µM
8 | O=C(NCCCN(CCCCN(CCCNC(=O)C(F)(F)F)Cc1ccccc1)Cc1ccccc1)C(F)(F)F | 40.6 µM | 56.2 µM | 38.1 µM | – | 34.1 µM | 25.1 µM | 34.2 µM | 25.3 µM | 59.5 µM | 28.1 µM
9 | C=CCn1c(=O)ccn(COCCO)c1=O | > 100 µM | > 100 µM | > 100 µM | > 100 µM | > 100 µM | – | > 100 µM | > 100 µM | > 100 µM | > 100 µM
10 | N#CC(C#N)=CNC(=S)c1ccncc1 | > 100 µM | > 100 µM | – | > 100 µM | > 100 µM | > 100 µM | > 100 µM | > 100 µM | > 100 µM | 80.3 µM
11 | Cc1cn(C2OC(C)(CO)C(O)C2O)c(=O)[nH]c1=O (centres undefined) | – | – | > 100 µM | > 100 µM | – | > 100 µM | > 100 µM | – | > 100 µM | –
12 | C=CCNC(=S)/N=C/c1c(O)c2ccccc2oc1=O | – | – | > 100 µM | > 100 µM | – | > 100 µM | > 100 µM | > 100 µM | > 100 µM | –
13 | CC1(C)N=C(C(N)=O)c2ncn(CCCO)c2N1 | > 100 µM | > 100 µM | > 100 µM | > 100 µM | > 100 µM | > 100 µM | > 100 µM | > 100 µM | > 100 µM | –
14 | c1ccc2c(c1)NC(C1OC3CCCN3C1C1Nc3ccccc3S1)S2 (centres undefined) | – | > 100 µM | > 100 µM | > 100 µM | – | > 100 µM | > 100 µM | > 100 µM | > 100 µM | > 100 µM
15 | O=C1c2cc3c(cc2CC1Br)CCC3 (centres undefined) | 5.68 µM | 29.4 µM | – | 8.09 µM | 13.9 µM | 3.47 µM | 3 µM | 28.9 µM | 38.7 µM | 4.49 µM
16 | Cc1cc(=O)c2c([nH]1)NS(=O)(=O)NC2=O | – | – | > 100 µM | – | – | > 100 µM | > 100 µM | > 100 µM | > 100 µM | –
17 | O=[N+]([O-])/C(C(Cl)=C(Cl)Cl)=C(\Nc1cccc2cccnc12)SCc1ccccc1 | 40.2 µM | 39.6 µM | – | 33.2 µM | > 100 µM | 47.3 µM | 36.8 µM | 49.1 µM | 88.4 µM | 35.6 µM
18 | CCOC(=O)/C=C(\C)c1ccc(C)cc1C | – | – | 63.8 µM | > 100 µM | – | – | 37.8 µM | > 100 µM | > 100 µM | –
19 | O=C(/C=C/c1ccsc1)c1ccsc1 | 92.2 µM | > 100 µM | – | 37.7 µM | 42.4 µM | 47.4 µM | 60.1 µM | > 100 µM | > 100 µM | –
20 | CN(C)c1nc(=NCc2ccccc2)ss1 | > 10 µM | > 10 µM | > 10 µM | > 10 µM | > 10 µM | > 10 µM | > 10 µM | > 10 µM | > 10 µM | –
21 | O=C1CN2C(c3ccccc3)=NN(c3ccc([N+](=O)[O-])cc3)C2(c2ccccc2)c2cc(Cl)ccc2N1CC1CC1 (centres undefined) | – | > 100 µM | > 100 µM | > 100 µM | > 100 µM | > 100 µM | > 100 µM | > 100 µM | > 100 µM | > 100 µM
22 | CC12CC(=O)C3C(C(=O)C1)C32C (centres undefined) | – | > 100 µM | – | > 100 µM | > 100 µM | > 100 µM | > 100 µM | > 100 µM | > 100 µM | > 100 µM
23 | CCCCC1c2c([nH]c3ccccc23)C2C(=O)N(c3ccc(OC)cc3)C(=O)C2C1CCC (centres undefined) | > 10 µM | > 10 µM | 7.86 µM | > 10 µM | > 10 µM | > 10 µM | > 10 µM | > 10 µM | > 10 µM | –
24 | Cc1ccccc1C(O)(c1nccn1C)c1nccn1C | > 100 µM | > 100 µM | > 100 µM | > 100 µM | – | > 100 µM | > 100 µM | > 100 µM | > 100 µM | > 100 µM
25 | N#C/C(=C\c1cc(Br)c(O)c(Br)c1)c1cccnc1 | – | > 100 µM | – | 35.6 µM | – | 70.5 µM | > 100 µM | 53.3 µM | > 100 µM | 56.9 µM
26 | CO[C@]12CC(=O)C3(C(C[C@H]4CC5CC=C6C[C@@H](OC(C)=O)CC[C@]6(OC(C)=O)C5C[C@@]43C)C1)C1C[C@H]3[C@@H]4CC=C5C[C@@H](OC(C)=O)CC[C@]5(OC(C)=O)[C@H]4CC[C@]3(C)C12 (some centres undefined) | 33.4 µM | 41.4 µM | > 100 µM | > 100 µM | 30.2 µM | > 100 µM | > 100 µM | 54.9 µM | > 100 µM | –
